In ChEMBL document CHEMBL1201862, “PubChem BioAssay data set” (2004):
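All cell lines were grown in 96-well plates and treated with compound for 48 hours. GI50 = concentration required for 50% inhibition of growth.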 The source made the active and inactive calls. Rule as the data show it: active = GI50 up to about 1.1 µM and inactive = higher.

Assays:
Assay in all cases: NCI tumour cell line growth inhibition, 48 h
[1] = system: SNB-75
[2] = system: UO-31
[3] = system: SK-OV-3
[4] = system: ACHN
[5] = system: M14
[6] = system: HOP-62
[7] = system: SK-MEL-28
[8] = system: CCRF-CEM
[9] = system: SK-MEL-2
[10] = system: SW-620
[11] = system: DU-145
[12] = system: RPMI-8226
[13] = system: KM12
[14] = system: K562
[15] = system: A549
[16] = system: HT-29
[17] = system: SF-539
[18] = system: MDA-MB-231
[19] = system: OVCAR-4
[20] = system: SF-295

Row | SMILES | GI50 [1] | GI50 [2] | GI50 [3] | GI50 [4] | GI50 [5] | GI50 [6] | GI50 [7] | GI50 [8] | GI50 [9] | GI50 [10] | GI50 [11] | GI50 [12] | GI50 [13] | GI50 [14] | GI50 [15] | GI50 [16] | GI50 [17] | GI50 [18] | GI50 [19] | GI50 [20]
1 | Nc1ccc(-c2nc3ccccc3s2)cc1Cl | 16.6 µM (inactive) | 23.3 µM (inactive) | > 73.8 µM (inactive) | > 100 µM (inactive) | > 100 µM (inactive) | 18.8 µM (inactive) | > 100 µM (inactive) | 10.2 µM (inactive) | > 100 µM (inactive) | > 100 µM (inactive) | > 100 µM (inactive) | 36.1 µM (inactive) | 40.3 µM (inactive) | 66.7 µM (inactive) | > 87.1 µM (inactive) | > 100 µM (inactive) | 77.6 µM (inactive) | > 92.9 µM (inactive) | > 100 µM (inactive) | 53.5 µM (inactive)
2 | Nc1ccc(Sc2c3ccccc3nc3ccccc23)cc1 | 17.1 µM (inactive) | 17.5 µM (inactive) | 22.3 µM (inactive) | 12.3 µM (inactive) | 15.7 µM (inactive) | 29.7 µM (inactive) | 15.2 µM (inactive) | 3.28 µM (inactive) | 16.9 µM (inactive) | 10.4 µM (inactive) | 13.7 µM (inactive) | 2.82 µM (inactive) | 18.6 µM (inactive) | 2.65 µM (inactive) | 33.3 µM (inactive) | 15.8 µM (inactive) | 15.6 µM (inactive) | 14.7 µM (inactive) | 12.1 µM (inactive) | 19.1 µM (inactive)
3 | C[Si](C)(C)C#CCO[Si](C)(C)C | 47.2 µM (inactive) | > 100 µM (inactive) | > 100 µM (inactive) | > 100 µM (inactive) | > 74.8 µM (inactive) | > 100 µM (inactive) | > 75.3 µM (inactive) | 5.69 µM (inactive) | > 54.2 µM (inactive) | 37.8 µM (inactive) | > 100 µM (inactive) | 21 µM (inactive) | > 50.4 µM (inactive) | 30.9 µM (inactive) | > 100 µM (inactive) | 32.9 µM (inactive) | 21.9 µM (inactive) | > 50.2 µM (inactive) | > 100 µM (inactive) | > 100 µM (inactive)
4 | O=C(C=P(c1ccccc1)(c1ccccc1)c1ccccc1)c1ccc(-c2cccs2)cc1 | 3.56 µM (inactive) | 3.48 µM (inactive) | 5.66 µM (inactive) | 3.73 µM (inactive) | 2.57 µM (inactive) | 6.64 µM (inactive) | 3.41 µM (inactive) | 4.56 µM (inactive) | 1.39 µM (inactive) | 4.33 µM (inactive) | 8.73 µM (inactive) | 2.25 µM (inactive) | 4.13 µM (inactive) | 3.59 µM (inactive) | 3.17 µM (inactive) | 3.75 µM (inactive) | 3.97 µM (inactive) | 9.79 µM (inactive) | 2.36 µM (inactive) | 4.17 µM (inactive)
5 | OC(c1ccsc1)c1cc2ccccc2s1 (stereo not given) | > 10 µM (inactive) | > 10 µM (inactive) | > 10 µM (inactive) | > 10 µM (inactive) | > 10 µM (inactive) | > 10 µM (inactive) | > 10 µM (inactive) | > 10 µM (inactive) | > 10 µM (inactive) | > 10 µM (inactive) | > 10 µM (inactive) | > 10 µM (inactive) | > 10 µM (inactive) | > 10 µM (inactive) | > 10 µM (inactive) | > 10 µM (inactive) | > 10 µM (inactive) | > 10 µM (inactive) | > 10 µM (inactive) | > 10 µM (inactive)
6 | O=C1C=CC2(C=C1)O[C@H](CCc1ccccc1)[C@@H](CCc1ccccc1)O2 | > 100 µM (inactive) | > 100 µM (inactive) | > 100 µM (inactive) | > 100 µM (inactive) | > 100 µM (inactive) | 61.2 µM (inactive) | > 100 µM (inactive) | > 100 µM (inactive) | > 100 µM (inactive) | > 100 µM (inactive) | > 100 µM (inactive) | 82 µM (inactive) | > 100 µM (inactive) | > 100 µM (inactive) | 43.7 µM (inactive) | > 100 µM (inactive) | > 100 µM (inactive) | > 100 µM (inactive) | 85.5 µM (inactive) | > 100 µM (inactive)
7 | NCCCCNC1(c2cc3ccccc3s2)CCCCC1 | 3.27 µM (inactive) | 2.56 µM (inactive) | 14.5 µM (inactive) | 11.1 µM (inactive) | 1.98 µM (inactive) | 6.03 µM (inactive) | 1.83 µM (inactive) | 1.69 µM (inactive) | 1.88 µM (inactive) | 3.54 µM (inactive) | 11.1 µM (inactive) | 1.84 µM (inactive) | 3.2 µM (inactive) | 1.59 µM (inactive) | 5.96 µM (inactive) | 2.42 µM (inactive) | 1.95 µM (inactive) | 3.22 µM (inactive) | 6.76 µM (inactive) | 2.84 µM (inactive)
8 | CC(C)(C)c1nc2c(o1)C(=O)c1ccccc1C2=O | 2.96 µM (inactive) | 2.81 µM (inactive) | 4.98 µM (inactive) | 2.28 µM (inactive) | 0.759 µM (active) | 3.37 µM (inactive) | 1.95 µM (inactive) | 1.47 µM (inactive) | 0.592 µM (active) | 1.58 µM (inactive) | 1.1 µM (active) | 1.93 µM (inactive) | 2.75 µM (inactive) | 0.834 µM (active) | 3.53 µM (inactive) | 3.9 µM (inactive) | 1.12 µM (inactive) | 0.385 µM (active) | 0.853 µM (active) | 1.93 µM (inactive)
9 | Cc1[nH]n(-c2nc3c(c(=O)[nH]2)CCC3)c(=O)c1CCO | 0.0195 µM (active) | > 100 µM (inactive) | > 100 µM (inactive) | > 100 µM (inactive) | > 100 µM (inactive) | > 100 µM (inactive) | > 100 µM (inactive) | > 100 µM (inactive) | > 100 µM (inactive) | > 100 µM (inactive) | > 100 µM (inactive) | > 100 µM (inactive) | > 100 µM (inactive) | > 100 µM (inactive) | > 100 µM (inactive) | > 100 µM (inactive) | > 100 µM (inactive) | > 100 µM (inactive) | > 100 µM (inactive) | > 100 µM (inactive)
10 | COc1cc2c(cc1OCCCCCOc1cc3c(cc1OC)C(=O)N1CCC[C@H]1C(=O)N3)N=C[C@@H]1CCCN1C2=O | < 0.01 µM (active) | 0.762 µM (active) | 0.102 µM (active) | 0.206 µM (active) | 0.114 µM (active) | 0.14 µM (active) | 0.174 µM (active) | < 0.01 µM (active) | 0.0809 µM (active) | 0.0875 µM (active) | 0.78 µM (active) | 0.0301 µM (active) | 0.18 µM (active) | 0.0453 µM (active) | 0.716 µM (active) | 0.116 µM (active) | 0.0224 µM (active) | 0.14 µM (active) | 0.198 µM (active) | 0.268 µM (active)
